Values of other authors in article PMC6640857 (Tetrahedron, 2019).

Conditions: relative to vancomycin; cited from earlier work

In the case of “chlorobiphenylmethyl (CBP-)vancomycin [compound 2]”, the “enhancement of antimicrobial potency by the CBP modification” value is given as ≤ 100 fold.
